According to patent US5276023A, “19-nor-steroid esters” (Roussel Uclaf, priority 1989, dated 1994):

Experiment: solubility in water
Format: physicochemical

With `CC#C[C@]1(OC(=O)CCC(=O)O)CC[C@H]2[C@@H]3CCC4=CC(=O)CCC4=C3[C@@H](c3ccc(N(C)C(C)C)cc3)C[C@@]21C` [Example 18, Sodium and 11β-[4(N-methyl-isopropylamino)-phenyl]-17α-(1-propynyl)-Δ^4,9-estradien-3-one-17β-yl succinate] the solubility was greater than 250 mg/mL.
